Laboratory results published in PMC7933930, “Development of a small molecule that corrects misfolding and increases secretion of Z α1‐antitrypsin” (EMBO Molecular Medicine, 2021).

Experiments:
NK1 (TACR1) = NK1 (TACR1) (Homo sapiens, UniProt P25103); assay: Off‐target panel: NK1 (TACR1); assay type: cell-based; settings: Antagonist, read-out: Mean (PXC50)
Method: (§1) GSK716 selectivity and PK properties were profiled in order to investigate the suitability of GSK716 for progression into in vivo studies and the potential for taking it forward as a clinical candidate for testing in humans. Since GSK716 results in loss of inhibitory activity of α1‐antitrypsin, the effect of the compound was assessed on other closely related serpins. […] Furthermore, there were no off‐target effects in a panel of assays considered predictive of known safety liabilities that precluded further development of GSK716 (Table EV1).

Dopamine D2 (DRD2S) = Dopamine D2 (DRD2S) (Homo sapiens, UniProt P14416); assay: Off‐target panel: Dopamine D2 (DRD2S) (DRX); assay type: cell-based
Chain of Dopamine D2 (DRD2S) (P14416 1-414 isoform P14416-2): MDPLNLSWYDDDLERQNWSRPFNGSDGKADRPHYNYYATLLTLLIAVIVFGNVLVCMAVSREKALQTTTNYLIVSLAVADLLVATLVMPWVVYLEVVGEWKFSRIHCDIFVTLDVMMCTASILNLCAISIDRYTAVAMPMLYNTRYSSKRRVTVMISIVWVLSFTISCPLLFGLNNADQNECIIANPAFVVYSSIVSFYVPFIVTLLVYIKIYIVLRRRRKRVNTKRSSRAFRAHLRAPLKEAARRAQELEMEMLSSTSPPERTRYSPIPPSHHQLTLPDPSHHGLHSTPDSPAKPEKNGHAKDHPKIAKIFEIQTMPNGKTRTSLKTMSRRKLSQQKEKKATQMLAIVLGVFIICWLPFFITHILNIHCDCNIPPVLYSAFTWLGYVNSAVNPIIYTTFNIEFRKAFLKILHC
Method: as §1

α1‐antichymotrypsin = α1‐antichymotrypsin (Homo sapiens, UniProt P01011); assay: Inhibitory activity of α1‐antichymotrypsin against chymotrypsin; assay type: biochemical
Chain of α1‐antichymotrypsin (P01011 24-423, species assumed): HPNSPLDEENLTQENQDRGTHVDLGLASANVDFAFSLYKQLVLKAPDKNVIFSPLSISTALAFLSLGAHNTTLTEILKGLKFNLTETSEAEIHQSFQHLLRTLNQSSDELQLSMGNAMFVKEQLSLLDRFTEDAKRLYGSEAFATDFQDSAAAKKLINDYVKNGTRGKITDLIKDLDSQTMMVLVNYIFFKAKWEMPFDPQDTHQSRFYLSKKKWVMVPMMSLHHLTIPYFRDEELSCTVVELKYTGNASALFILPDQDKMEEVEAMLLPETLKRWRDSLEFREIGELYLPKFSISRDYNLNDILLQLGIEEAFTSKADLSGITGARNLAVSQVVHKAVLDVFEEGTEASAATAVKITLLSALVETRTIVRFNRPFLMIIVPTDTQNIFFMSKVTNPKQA
Method: Figure 5 The effect of GSK716 on serpin inhibitory activity • α1‐Antitrypsin was incubated at varying molar ratios with the model protease bovine α‐chymotrypsin, and the residual protease activity determined. The intercept of the regression with the abscissa reflects the number of molecules of α1‐antitrypsin required to inhibit one molecule of chymotrypsin in the presence (+c) and absence (−c) of 50µM GSK716. Error bars reflect ± SEM of three independent experiments. • M α1‐antitrypsin was incubated with different molar ratios of chymotrypsin and resolved by SDS–PAGE. The position of covalent α1‐antitrypsin‐chymotrypsin complex (cpx), native (nat) and cleaved (clv) is shown. • The inhibitory activity of α1‐antichymotrypsin against chymotrypsin (ach + chym), neuroserpin against trypsin (neus + tryp), and antithrombin against thrombin (atiii + thrombin) was determined in the presence and absence of GSK716. Error bars reflect ± SD of two independent experiments.
GSK716 selectivity and PK properties were profiled in order to investigate the suitability of GSK716 for progression into in vivo studies and the potential for taking it forward as a clinical candidate for testing in humans. Since GSK716 results in loss of inhibitory activity of α1‐antitrypsin, the effect of the compound was assessed on other closely related serpins. […]

Adrenergic α1B = Adrenergic α1B (Homo sapiens, UniProt P35368); assay: Off‐target panel: Adrenergic α1B (DRX); assay type: cell-based
Chain of Adrenergic α1B (P35368 whole entry): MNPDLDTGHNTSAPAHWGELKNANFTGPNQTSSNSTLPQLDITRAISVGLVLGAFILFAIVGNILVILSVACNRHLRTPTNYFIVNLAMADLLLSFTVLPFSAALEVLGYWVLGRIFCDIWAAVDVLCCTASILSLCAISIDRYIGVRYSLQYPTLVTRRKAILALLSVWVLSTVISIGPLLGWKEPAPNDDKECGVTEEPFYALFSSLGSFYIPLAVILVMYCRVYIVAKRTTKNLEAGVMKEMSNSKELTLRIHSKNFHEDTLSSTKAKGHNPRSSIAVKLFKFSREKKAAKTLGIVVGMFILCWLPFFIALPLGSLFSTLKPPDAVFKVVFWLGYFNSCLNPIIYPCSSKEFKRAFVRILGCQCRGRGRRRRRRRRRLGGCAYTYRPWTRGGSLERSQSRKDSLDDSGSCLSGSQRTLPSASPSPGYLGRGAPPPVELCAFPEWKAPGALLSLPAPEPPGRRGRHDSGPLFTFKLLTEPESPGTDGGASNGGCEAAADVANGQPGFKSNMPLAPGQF
Method: as §1

Z α1‐antitrypsin = Z α1‐antitrypsin (Homo sapiens, UniProt P01009, E366K); assay: Competition binding assay with Alexa488‐labelled analogue of GSK716, Z α1‐antitrypsin; parameters: purified from the plasma of Z α1‐antitrypsin homozygotes; from tissue; host or cells: human plasma of Z α1-antitrypsin homozygotes; settings: n = 18, mean ± SD, read-out: mean pKD (converted)
Chain of Z α1‐antitrypsin (P01009 25-418 E366K): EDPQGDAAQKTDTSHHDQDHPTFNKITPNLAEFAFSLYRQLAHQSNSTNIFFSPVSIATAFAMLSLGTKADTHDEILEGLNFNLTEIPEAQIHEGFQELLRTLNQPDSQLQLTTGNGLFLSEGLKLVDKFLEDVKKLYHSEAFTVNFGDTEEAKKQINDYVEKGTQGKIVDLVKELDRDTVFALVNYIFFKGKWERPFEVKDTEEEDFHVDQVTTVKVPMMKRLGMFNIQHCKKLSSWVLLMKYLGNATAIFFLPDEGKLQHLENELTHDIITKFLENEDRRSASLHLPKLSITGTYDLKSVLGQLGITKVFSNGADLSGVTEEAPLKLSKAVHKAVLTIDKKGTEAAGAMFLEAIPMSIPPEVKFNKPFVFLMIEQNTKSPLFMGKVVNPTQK
From the text: The shape of the curves and native mass spectrometry (not shown) are consistent with a single high‐affinity compound binding site. No binding of the fluorescent derivative to polymers of Z α1‐antitrypsin was observed, indicating conformational selectivity for the monomeric protein (Fig 1D). The rate of interaction of the compound with the target was monitored through changes in intrinsic tryptophan fluorescence (Dafforn et al, 1999); this property was used to determine the second‐order association rate constants for GSK716 binding to Z (4.1 × 10^4 M^−1 s^−1) and M α1‐antitrypsin (2.1 × 10^2 M^−1 s^−1; Fig 1E and F). […] Therefore, the selectivity of the compound for Z over M α1‐antitrypsin is dominated by the difference in the rate of association rather than dissociation.
Kinetic parameters of GSK716 binding to M, Z, S (Glu264Val) and Baghdad (Ala336Pro) (Haq et al, 2016) α1‐antitrypsin were measured by detecting intrinsic tryptophan fluorescence of the protein (excitation at 280 nm and detection of emission at 320 nm) on a stopped flow apparatus (Applied Photophysics) (Kim & Yu, 1996; Dafforn et al, 1999). […]

NULL CHO-K1 = assay: Off‐target panel: NULL CHO-K1 Agonist (DRX); assay type: cell-based; settings: Cricetulus griseus, read-out: Mean (PXC50)
Method: as §1

OATP1B1 = OATP1B1 (Homo sapiens, UniProt Q9Y6L6); assay: Off‐target panel: OATP1B1; assay type: in vitro ADME; settings: Inhibition, read-out: Mean (PXC50)
Chain of OATP1B1 (Q9Y6L6 whole entry, species assumed): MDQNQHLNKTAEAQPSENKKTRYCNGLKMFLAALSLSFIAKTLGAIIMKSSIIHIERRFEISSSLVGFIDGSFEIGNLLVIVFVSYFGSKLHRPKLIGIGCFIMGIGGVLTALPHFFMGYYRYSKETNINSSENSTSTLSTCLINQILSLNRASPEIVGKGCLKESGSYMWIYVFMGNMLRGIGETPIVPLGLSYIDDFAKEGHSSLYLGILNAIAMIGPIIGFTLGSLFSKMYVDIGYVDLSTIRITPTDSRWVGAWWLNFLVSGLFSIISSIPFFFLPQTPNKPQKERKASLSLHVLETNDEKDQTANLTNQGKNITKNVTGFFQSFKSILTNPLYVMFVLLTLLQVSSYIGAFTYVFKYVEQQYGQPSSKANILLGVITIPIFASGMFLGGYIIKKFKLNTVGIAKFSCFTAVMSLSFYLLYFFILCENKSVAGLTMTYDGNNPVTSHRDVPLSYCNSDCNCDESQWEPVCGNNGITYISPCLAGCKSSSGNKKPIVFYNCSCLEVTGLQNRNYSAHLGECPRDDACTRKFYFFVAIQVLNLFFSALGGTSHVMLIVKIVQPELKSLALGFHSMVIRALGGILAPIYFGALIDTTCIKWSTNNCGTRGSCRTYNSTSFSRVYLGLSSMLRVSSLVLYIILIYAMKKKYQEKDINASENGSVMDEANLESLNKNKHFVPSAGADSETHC
Method: as §1

hERG = hERG (Homo sapiens, UniProt Q12809); assay: Off‐target panel: hERG (Barracuda); assay type: cell-based; settings: Blocker, read-out: Mean (PXC50) (converted)
Method: as §1

GABA-A = assay: Off‐target panel: GABA-A (Barracuda); assay type: cell-based
Method: as §1

Kv1.5 = Kv1.5 (Homo sapiens, UniProt P22460); assay: Off‐target panel: Kv1.5; assay type: cell-based; settings: Blocker, read-out: Mean (PXC50)
Chain of Kv1.5 (P22460 whole entry): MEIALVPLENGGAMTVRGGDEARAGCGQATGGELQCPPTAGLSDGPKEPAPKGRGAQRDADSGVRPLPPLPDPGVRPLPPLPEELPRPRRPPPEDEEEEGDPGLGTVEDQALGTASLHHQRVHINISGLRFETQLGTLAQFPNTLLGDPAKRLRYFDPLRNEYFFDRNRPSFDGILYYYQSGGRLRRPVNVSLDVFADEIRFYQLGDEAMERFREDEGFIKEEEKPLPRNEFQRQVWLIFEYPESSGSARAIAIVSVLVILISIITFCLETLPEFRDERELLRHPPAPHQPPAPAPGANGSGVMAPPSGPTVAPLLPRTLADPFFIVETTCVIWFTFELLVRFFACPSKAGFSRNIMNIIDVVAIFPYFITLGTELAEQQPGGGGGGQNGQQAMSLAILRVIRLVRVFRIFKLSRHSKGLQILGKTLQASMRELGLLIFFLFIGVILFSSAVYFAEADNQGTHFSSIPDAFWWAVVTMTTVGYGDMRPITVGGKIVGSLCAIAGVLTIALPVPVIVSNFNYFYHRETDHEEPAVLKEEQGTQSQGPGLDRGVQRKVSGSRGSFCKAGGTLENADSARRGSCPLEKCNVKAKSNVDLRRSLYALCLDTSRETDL
Method: as §1

[1] = biological target: Aryl hydrocarbon receptor (Homo sapiens, UniProt P35869); assay: Off‐target panel: Aryl hydrocarbon receptor; assay type: cell-based; settings: Activator, read-out: Mean (PXC50)
Chain of Aryl hydrocarbon receptor (P35869 11-848, species assumed): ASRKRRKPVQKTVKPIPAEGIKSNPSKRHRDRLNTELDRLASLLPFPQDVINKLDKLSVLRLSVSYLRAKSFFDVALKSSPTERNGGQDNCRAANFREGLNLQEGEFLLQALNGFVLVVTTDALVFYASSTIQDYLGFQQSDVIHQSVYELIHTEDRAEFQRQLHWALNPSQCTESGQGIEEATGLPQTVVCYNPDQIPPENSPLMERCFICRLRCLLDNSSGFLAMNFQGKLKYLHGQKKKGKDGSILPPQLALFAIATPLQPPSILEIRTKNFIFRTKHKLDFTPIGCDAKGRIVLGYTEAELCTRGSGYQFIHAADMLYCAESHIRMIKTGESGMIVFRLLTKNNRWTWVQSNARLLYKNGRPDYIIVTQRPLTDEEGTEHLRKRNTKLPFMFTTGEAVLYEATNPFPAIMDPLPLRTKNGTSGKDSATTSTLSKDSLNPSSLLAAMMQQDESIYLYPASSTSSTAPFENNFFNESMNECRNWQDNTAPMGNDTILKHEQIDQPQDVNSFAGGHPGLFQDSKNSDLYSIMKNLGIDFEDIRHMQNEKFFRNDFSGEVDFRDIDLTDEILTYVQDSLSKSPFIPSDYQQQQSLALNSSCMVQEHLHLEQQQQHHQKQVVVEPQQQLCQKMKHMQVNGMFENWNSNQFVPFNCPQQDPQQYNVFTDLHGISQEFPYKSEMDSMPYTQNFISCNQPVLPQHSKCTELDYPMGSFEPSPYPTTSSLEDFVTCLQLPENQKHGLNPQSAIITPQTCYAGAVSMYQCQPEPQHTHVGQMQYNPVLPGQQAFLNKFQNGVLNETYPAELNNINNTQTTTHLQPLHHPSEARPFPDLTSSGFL
Method: as §1

Serotonin 5HT1B = Serotonin 5HT1B (Homo sapiens, UniProt P28222); assay: Off‐target panel: Serotonin 5HT1B; assay type: cell-based
Chain of Serotonin 5HT1B (P28222 whole entry): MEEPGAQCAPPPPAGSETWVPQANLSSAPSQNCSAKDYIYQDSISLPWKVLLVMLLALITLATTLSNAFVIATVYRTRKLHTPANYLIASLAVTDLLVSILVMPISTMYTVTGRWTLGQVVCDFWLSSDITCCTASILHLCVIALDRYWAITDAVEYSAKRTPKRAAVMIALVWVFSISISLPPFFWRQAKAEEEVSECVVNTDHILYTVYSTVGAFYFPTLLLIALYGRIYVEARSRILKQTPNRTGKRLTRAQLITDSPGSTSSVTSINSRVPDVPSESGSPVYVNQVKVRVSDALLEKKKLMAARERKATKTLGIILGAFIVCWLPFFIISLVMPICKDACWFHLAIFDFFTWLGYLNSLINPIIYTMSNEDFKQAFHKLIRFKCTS
Method: as §1

α1‐antitrypsin = biological target: T1, α1‐antitrypsin (Homo sapiens, UniProt P01009, E366K); assay: Intrahepatic α1‐antitrypsin by ELISA in Z α1‐antitrypsin transgenic mice; assay type: in vivo, mouse
T1 construct: random insertion of the human Z α1‐antitrypsin gene; from tissue; host or cells: hemizygous Z α1-antitrypsin transgenic mice (liver, plasma)
T1 sequence (P01009 25-418 E366K): as the sequence (P01009 25-418 E366K) above
Method: Since GSK716 blocks polymer formation in cells, we explored the effect of dosing GSK716 on liver polymer levels. […] GSK716 was dosed at 100 mg/kg three times a day for 20 days. […] Liver polymer levels were investigated by staining with 2C1 anti‐polymer monoclonal antibody and were scored blind by a pathologist or by quantification using an algorithm to measure all areas of positive staining (Fig EV1). There was no difference observed in total liver polymer load when assessed by manual or quantitative scoring (Fig 6B and C). There was no significant fibrosis in any of the liver sections. Intrahepatic α1‐antitrypsin was also assessed by ELISA. The vast majority (95–100%) of α1‐antitrypsin within the liver was polymer with the monomer typically being below the level of detection. Treatment with GSK716 increased the monomer measured in liver homogenate by approx. fourfold in keeping with the changes seen in blood.

Chain of NK1 (TACR1) (P25103 whole entry, species assumed): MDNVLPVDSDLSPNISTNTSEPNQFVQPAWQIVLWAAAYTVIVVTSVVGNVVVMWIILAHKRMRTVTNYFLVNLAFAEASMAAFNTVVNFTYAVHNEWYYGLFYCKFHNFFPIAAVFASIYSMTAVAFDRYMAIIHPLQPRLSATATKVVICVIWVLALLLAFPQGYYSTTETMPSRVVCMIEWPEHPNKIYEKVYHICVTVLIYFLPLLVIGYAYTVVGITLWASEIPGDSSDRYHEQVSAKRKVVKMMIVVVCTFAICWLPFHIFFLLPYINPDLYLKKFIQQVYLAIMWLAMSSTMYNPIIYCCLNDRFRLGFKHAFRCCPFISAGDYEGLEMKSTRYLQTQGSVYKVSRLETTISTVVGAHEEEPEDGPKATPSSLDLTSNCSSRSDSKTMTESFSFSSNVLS

CCC[C@@H](NC(=O)c1cccc2c1CC(=O)N2)[C@@H](O)c1cccc(F)c1C [GSK716] was tested, and the IC50 (NK1 (TACR1)) was > 25.1 µM, the EC50 (Dopamine D2 (DRD2S)) was > 100 µM and the IC50 (Dopamine D2 (DRD2S)) was > 100 µM. The “inhibitory activity of α1‐antichymotrypsin towards its cognate protease” value (α1‐antichymotrypsin) was “did not affect”, the IC50 (Adrenergic α1B) was > 25.1 µM and the Kd (Z α1‐antitrypsin) was 0.00316 µM. The EC50 (NULL CHO-K1) was > 100 µM, the IC50 (OATP1B1) was > 50.1 µM and the IC50 (hERG) was 15.8 µM. The “Mean (PXC50)” value (GABA-A; Agonist) was <4, the “Mean (PXC50)” value (GABA-A; Antagonist) was <4 and the “Mean (PXC50)” value (GABA-A; Pos Mod) was <4. The IC50 (Kv1.5) was > 50.1 µM, the EC50 [1] was > 100 µM and the EC50 (Serotonin 5HT1B) was > 100 µM. For the same molecule, the IC50 (Serotonin 5HT1B) was > 100 µM and the “increase of monomer measured in liver homogenate” value (α1‐antitrypsin) was “approx. fourfold”.
